Measured values: patent US20260132123A1, “ABAD INHIBITOR COMPOUNDS” (UNIVERSITY COURT OF THE UNIVERSITY OF ST ANDREWS, priority 2021, published 2026)

Molecular target: T1, 17β-HSD10 (Homo sapiens, UniProt Q99714)
T1 construct: Histev (histidine tag with TEV site) (N, cleaved yes); made in house; host or cells: E. coli BL21-CodonPlus
T1 sequence (Q99714 1-261): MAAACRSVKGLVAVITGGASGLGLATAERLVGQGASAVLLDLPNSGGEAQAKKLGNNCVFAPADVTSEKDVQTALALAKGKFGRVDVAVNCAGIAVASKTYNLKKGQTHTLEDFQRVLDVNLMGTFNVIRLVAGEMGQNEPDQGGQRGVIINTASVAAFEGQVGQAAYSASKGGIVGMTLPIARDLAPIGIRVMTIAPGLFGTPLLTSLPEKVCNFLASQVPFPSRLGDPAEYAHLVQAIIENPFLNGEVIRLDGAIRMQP
Assay: 17β-HSD10 (ABAD) enzyme inhibition assay, NADH oxidation read at 340 nm (primary screen and dose response)
Type: biochemical
Settings: not given
In short: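 Screening used a 35 min room-temperature endpoint A340 read after compound (10 μM) and enzyme (2.5 nM, E. coli-expressed, His-tag removed) preincubated 15 min, then 100 μM NADH plus acetoacetyl-CoA added. Dose-response runs tracked absorbance kinetically 45 min; buffer pH 7.4 Tris with BSA, DTT.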

Compound	17β-HSD10 / ABAD activity in words (SAR discussion)
Cc1ncc(CN(C)c2cccc(N(CC(C)C)C(=O)c3ccccc3F)c2)[nH]1 [ESC1002204]	only slightly reduced ABAD inhibition levels

Same assay, conditions: 17β-HSD10 dose response / inhibition assay; read-out: 17β-HSD10 pIC50 (converted)

Compound	IC50 [nM]
COc1ccc(-c2ccccc2[C@@H]2CCCN2C(=O)c2sccc2C)cn1 (single isomer, unassigned) [ESC1002161]	> 20000

Same assay, conditions: 17β-HSD10 inhibition; read-out: IC50

Compound	IC50 [nM]
COc1cccc(-c2ccccc2[C@@H]2CCCN2C(=O)c2sccc2C)c1 [ESC1002338]	191

Same assay, conditions: Table 3; equals Max. Effect (%) of Table 6

Compound	figure in brackets after the pIC50 bound
COc1ccc(-c2ccccc2[C@@H]2CCCN2C(=O)c2sccc2C)cn1 (single isomer, unassigned) [ESC1002161]	7

Same assay, conditions: Table 5; read-out: Mean ABAD pIC50 (converted)

Compound	IC50 [nM]
COc1cccc(-c2ccccc2[C@@H]2CCCN2C(=O)c2[nH]ncc2Cl)c1 (single isomer, unassigned) [ESC1002757]	105
Cc1ccsc1C(=O)N(CC(C)C)c1cccc(N(C)Cc2c[nH]cn2)c1 [ESC1002597]	398
Cc1ncc(CN(C)c2cccc(N(CC(C)C)C(=O)c3ccccc3F)c2)[nH]1 [ESC1002204]	398
Cc1ccsc1C(=O)N1CCC[C@H]1c1ccccc1-c1cccc(Cl)c1 (single isomer, unassigned) [ESC1002769]	170

Same assay, conditions: recombinant 17βHSD10 enzyme assay

Compound	EC50 [nM]	Max. Effect (%)
COc1cccc(-c2ccccc2[C@@H]2CCCN2C(=O)c2[nH]ncc2Cl)c1 (single isomer, unassigned) [ESC1002757]	115	94
Cc1ccsc1C(=O)N(CC(C)C)c1cccc(N(C)Cc2c[nH]cn2)c1 [ESC1002597]	398	100
COc1cccc(-c2ccccc2[C@@H]2CCCN2C(=O)c2sccc2C)c1 [ESC1002338]	191	101
CC(C)CN(C(=O)c1ccccc1F)c1cccc(N(C)Cc2ccncc2)c1 [ESC1002211]	> 20000	40
COc1ccc(C(=O)N(CC(C)C)c2cccc(N(C)Cc3cnc[nH]3)c2)cc1 [ESC1002182, N-[3-[1H-imidazol-5-ylmethyl(methyl)amino]phenyl]-N-isobutyl-4-methoxy-benzamide]	331	99
Cc1ncc(CN(C)c2cccc(N(CC(C)C)C(=O)c3ccccc3F)c2)[nH]1 [ESC1002204]	398	97
Cc1ccsc1C(=O)N1CCC[C@@H]1c1ccccc1-c1cn[nH]c1 [ESC1002092]	1230	93
CCCC(=O)N(CC(C)C)c1cccc(N(C)Cc2cnc[nH]2)c1 [ESC1002235, N-[3-[1H-imidazol-5-ylmethyl(methyl)amino]phenyl]-N-isobutyl-butanamide]	2950	85
Cc1ccsc1C(=O)N1CCC[C@H]1c1ccccc1-c1cccc(Cl)c1 (single isomer, unassigned) [ESC1002769]	191	94
Cc1ccccc1-c1ccccc1[C@@H]1CCCN1C(=O)c1sccc1C [ESC1002323]	468	106
Cc1ccsc1C(=O)N1CCC[C@H]1c1ccccc1-c1ccc(S(C)(=O)=O)cc1 [ESC1002319]	5890	79
COc1ccc(-c2ccccc2[C@@H]2CCCN2C(=O)c2sccc2C)cn1 (single isomer, unassigned) [ESC1002161]	> 20000	7
CC(C)CN(C(=O)c1ccccc1F)c1cccc(N(C)Cc2cn3ccccc3n2)c1 [ESC1002214]	> 20000	22

Same assay, conditions: recombinant 17βHSD10 enzyme assay, curve fit

Compound	Hill Slope	Max. Fit	Min. Fit
COc1cccc(-c2ccccc2[C@@H]2CCCN2C(=O)c2[nH]ncc2Cl)c1 (single isomer, unassigned) [ESC1002757]	0.89	95	−10
Cc1ccsc1C(=O)N(CC(C)C)c1cccc(N(C)Cc2c[nH]cn2)c1 [ESC1002597]	1.4	96	4
COc1cccc(-c2ccccc2[C@@H]2CCCN2C(=O)c2sccc2C)c1 [ESC1002338]	1.1	100	0
COc1ccc(C(=O)N(CC(C)C)c2cccc(N(C)Cc3cnc[nH]3)c2)cc1 [ESC1002182, N-[3-[1H-imidazol-5-ylmethyl(methyl)amino]phenyl]-N-isobutyl-4-methoxy-benzamide]	0.8	103	0
Cc1ncc(CN(C)c2cccc(N(CC(C)C)C(=O)c3ccccc3F)c2)[nH]1 [ESC1002204]	1.2	98	0
Cc1ccsc1C(=O)N1CCC[C@@H]1c1ccccc1-c1cn[nH]c1 [ESC1002092]	1	98	0
CCCC(=O)N(CC(C)C)c1cccc(N(C)Cc2cnc[nH]2)c1 [ESC1002235, N-[3-[1H-imidazol-5-ylmethyl(methyl)amino]phenyl]-N-isobutyl-butanamide]	1.1	93	−3
Cc1ccsc1C(=O)N1CCC[C@H]1c1ccccc1-c1cccc(Cl)c1 (single isomer, unassigned) [ESC1002769]	1	93	−3
Cc1ccccc1-c1ccccc1[C@@H]1CCCN1C(=O)c1sccc1C [ESC1002323]	1.4	101	7
Cc1ccsc1C(=O)N1CCC[C@H]1c1ccccc1-c1ccc(S(C)(=O)=O)cc1 [ESC1002319]	1	101	−2

Test system: mtsABAD HEK293 cells
Assay: Lactate dehydrogenase (LDH) cytotoxicity assay
Type: cell-based, human
Settings: 50 μM compound

Compound	LDH % Toxicity (50 μM Dose) [%]
COc1cccc(-c2ccccc2[C@@H]2CCCN2C(=O)c2sccc2C)c1 [ESC1002338]	4.64
CC(C)CN(C(=O)c1ccccc1F)c1cccc(N(C)Cc2ccncc2)c1 [ESC1002211]	5.501
COc1ccc(C(=O)N(CC(C)C)c2cccc(N(C)Cc3cnc[nH]3)c2)cc1 [ESC1002182, N-[3-[1H-imidazol-5-ylmethyl(methyl)amino]phenyl]-N-isobutyl-4-methoxy-benzamide]	4.733
Cc1ccsc1C(=O)N1CCC[C@@H]1c1ccccc1-c1cn[nH]c1 [ESC1002092]	4.240
CCCC(=O)N(CC(C)C)c1cccc(N(C)Cc2cnc[nH]2)c1 [ESC1002235, N-[3-[1H-imidazol-5-ylmethyl(methyl)amino]phenyl]-N-isobutyl-butanamide]	5.54
Cc1ccccc1-c1ccccc1[C@@H]1CCCN1C(=O)c1sccc1C [ESC1002323]	5.03
Cc1ccsc1C(=O)N1CCC[C@H]1c1ccccc1-c1ccc(S(C)(=O)=O)cc1 [ESC1002319]	5.17
COc1ccc(-c2ccccc2[C@@H]2CCCN2C(=O)c2sccc2C)cn1 (single isomer, unassigned) [ESC1002161]	4.783
CC(C)CN(C(=O)c1ccccc1F)c1cccc(N(C)Cc2cn3ccccc3n2)c1 [ESC1002214]	5.902

Same assay, conditions: 50 μM compound, listed as ESC1002204-01

Compound	LDH % Toxicity (50 μM Dose) [%]
Cc1ncc(CN(C)c2cccc(N(CC(C)C)C(=O)c3ccccc3F)c2)[nH]1 [ESC1002204]	5.048

Test system: mtsABAD HEK293 cells
Assay: Alamar Blue cell viability assay
Type: cell-based, human
Settings: 50 μM compound

Compound	Alamar Blue % Viability (50 μM Dose) [%]
COc1cccc(-c2ccccc2[C@@H]2CCCN2C(=O)c2sccc2C)c1 [ESC1002338]	82.98
CC(C)CN(C(=O)c1ccccc1F)c1cccc(N(C)Cc2ccncc2)c1 [ESC1002211]	82.553
COc1ccc(C(=O)N(CC(C)C)c2cccc(N(C)Cc3cnc[nH]3)c2)cc1 [ESC1002182, N-[3-[1H-imidazol-5-ylmethyl(methyl)amino]phenyl]-N-isobutyl-4-methoxy-benzamide]	87.643
Cc1ccsc1C(=O)N1CCC[C@@H]1c1ccccc1-c1cn[nH]c1 [ESC1002092]	80.606
CCCC(=O)N(CC(C)C)c1cccc(N(C)Cc2cnc[nH]2)c1 [ESC1002235, N-[3-[1H-imidazol-5-ylmethyl(methyl)amino]phenyl]-N-isobutyl-butanamide]	84.09
Cc1ccccc1-c1ccccc1[C@@H]1CCCN1C(=O)c1sccc1C [ESC1002323]	96.19
Cc1ccsc1C(=O)N1CCC[C@H]1c1ccccc1-c1ccc(S(C)(=O)=O)cc1 [ESC1002319]	82.10
COc1ccc(-c2ccccc2[C@@H]2CCCN2C(=O)c2sccc2C)cn1 (single isomer, unassigned) [ESC1002161]	92.566
CC(C)CN(C(=O)c1ccccc1F)c1cccc(N(C)Cc2cn3ccccc3n2)c1 [ESC1002214]	82.439

Same assay, conditions: 50 μM compound, listed as ESC1002204-01

Compound	Alamar Blue % Viability (50 μM Dose) [%]
Cc1ncc(CN(C)c2cccc(N(CC(C)C)C(=O)c3ccccc3F)c2)[nH]1 [ESC1002204]	88.836

Test system: not listed separately
Assay: Mouse hepatocyte stability
Type: in vitro ADME
Parameters: k: unit not given here
Settings: hepatocyte metabolism category, mouse
Description: Table 5: Initial mouse hepatocyte stability and plasma protein binding experiments were undertaken on some of the best exemplars from the representative series with AG18051 a previously published 17β-HSD10 inhibitor (C. R. Kissinger et al., J. Mol. Biol., 342 (2004), p. 943; Lim, Y.-A., Grimm, A., Giese, M. PLoS ONE (2011), 6, e28887.) Ref: shown for comparison. Where k=absorption rate constant Cl=clearance, T1/2=half-life, Heps=hepatocyte metabolism, PPB=plasma protein binding.

Compound	Heps Category
COc1cccc(-c2ccccc2[C@@H]2CCCN2C(=O)c2[nH]ncc2Cl)c1 (single isomer, unassigned) [ESC1002757]	High
Cc1ccsc1C(=O)N(CC(C)C)c1cccc(N(C)Cc2c[nH]cn2)c1 [ESC1002597]	Mod
Cc1ncc(CN(C)c2cccc(N(CC(C)C)C(=O)c3ccccc3F)c2)[nH]1 [ESC1002204]	High
Cc1ccsc1C(=O)N1CCC[C@H]1c1ccccc1-c1cccc(Cl)c1 (single isomer, unassigned) [ESC1002769]	High

Same assay, conditions: mouse hepatocytes, clearance

Compound	Cl [ml/minute/g liver]
COc1cccc(-c2ccccc2[C@@H]2CCCN2C(=O)c2[nH]ncc2Cl)c1 (single isomer, unassigned) [ESC1002757]	62.4
Cc1ccsc1C(=O)N(CC(C)C)c1cccc(N(C)Cc2c[nH]cn2)c1 [ESC1002597]	7.2
Cc1ncc(CN(C)c2cccc(N(CC(C)C)C(=O)c3ccccc3F)c2)[nH]1 [ESC1002204]	54
Cc1ccsc1C(=O)N1CCC[C@H]1c1ccccc1-c1cccc(Cl)c1 (single isomer, unassigned) [ESC1002769]	71.5

Same assay, conditions: mouse hepatocytes, half-life

Compound	half-life [min]
COc1cccc(-c2ccccc2[C@@H]2CCCN2C(=O)c2[nH]ncc2Cl)c1 (single isomer, unassigned) [ESC1002757]	5.33
Cc1ccsc1C(=O)N(CC(C)C)c1cccc(N(C)Cc2c[nH]cn2)c1 [ESC1002597]	46.2
Cc1ncc(CN(C)c2cccc(N(CC(C)C)C(=O)c3ccccc3F)c2)[nH]1 [ESC1002204]	6.16
Cc1ccsc1C(=O)N1CCC[C@H]1c1ccccc1-c1cccc(Cl)c1 (single isomer, unassigned) [ESC1002769]	4.65

Same assay, conditions: mouse hepatocytes; k=absorption rate constant (so in the source)

Compound	k
COc1cccc(-c2ccccc2[C@@H]2CCCN2C(=O)c2[nH]ncc2Cl)c1 (single isomer, unassigned) [ESC1002757]	0.13
Cc1ccsc1C(=O)N(CC(C)C)c1cccc(N(C)Cc2c[nH]cn2)c1 [ESC1002597]	0.02
Cc1ncc(CN(C)c2cccc(N(CC(C)C)C(=O)c3ccccc3F)c2)[nH]1 [ESC1002204]	0.11
Cc1ccsc1C(=O)N1CCC[C@H]1c1ccccc1-c1cccc(Cl)c1 (single isomer, unassigned) [ESC1002769]	0.15
